Several values for one entry are separate records, joined by “and”; a condition that tells them apart may be missing. Equal entries are not always repeated.
Tests used:
Format in all cases: biochemical
[1] = test system: T1, UGT enzymes of human liver microsomes; assay: Inhibition of 7-HFC glucuronidation in human liver microsomes; settings: for % of control metabolism (SD, n = 3), 7-HFC glucuronidation: 7-HFC 50 μM, human liver microsomes 100 μg/ml, 15 min
T1 construct: percentage of control metabolism, 7-HFC glucuronidation; percentage of control metabolism, 7-HFC glucuronidation

[2] = biological target: T2, UGT enzymes of human liver microsomes (Homo sapiens, UniProt P16662); assay: Inhibition of zidovudine glucuronidation in human liver microsomes; settings: liver lot 062101
T2 construct: residual metabolism (percentage of control), zidovudine glucuronidation; other: liver lot 062101; residual metabolism (percentage of control), zidovudine glucuronidation; residual metabolism (percentage of control)
T2 sequence (P16662 1-529): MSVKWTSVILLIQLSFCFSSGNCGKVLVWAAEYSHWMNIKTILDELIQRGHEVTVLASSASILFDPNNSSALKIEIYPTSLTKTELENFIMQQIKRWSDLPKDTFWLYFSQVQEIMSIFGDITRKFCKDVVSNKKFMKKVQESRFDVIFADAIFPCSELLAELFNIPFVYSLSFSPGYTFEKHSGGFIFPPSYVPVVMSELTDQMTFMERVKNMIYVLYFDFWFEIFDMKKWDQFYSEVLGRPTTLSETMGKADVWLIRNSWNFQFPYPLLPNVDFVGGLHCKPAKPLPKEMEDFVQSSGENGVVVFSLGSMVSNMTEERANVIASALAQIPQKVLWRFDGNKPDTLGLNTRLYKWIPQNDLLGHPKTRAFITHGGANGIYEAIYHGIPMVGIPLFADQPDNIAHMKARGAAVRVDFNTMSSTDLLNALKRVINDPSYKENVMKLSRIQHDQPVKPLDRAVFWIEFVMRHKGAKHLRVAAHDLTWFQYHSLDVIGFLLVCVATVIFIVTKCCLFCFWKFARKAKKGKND
Experimental: Compounds were eluted using a binary solvent gradient system where solvent A was dilute phosphoric acid (pH 3) and solvent B was acetonitrile.
Standardized incubations utilized 500 μM zidovudine substrate, 1 mg/ml microsomal protein, 5 mM UDPGA and a 30 min incubation time. […] Int.

[3] = test system: UGT enzymes of human liver microsomes; assay: Inhibition of raloxifene glucuronidation (G1, G2) in human liver microsomes; settings: raloxifene 50 μM, human liver microsomes 250 μg/ml, 15 min
Description: Compounds were eluted using a binary solvent gradient system. […] Solvent B was methanol. […] Detection was at 280 nm.

[4] = test system: UGT enzymes of pooled human jejunum microsomes; assay: Inhibition of 2ME2 glucuronidation (MG1) in pooled human jejunum microsomes; settings: jejunum HJ61, 2ME2 50 μM
Description: (§1) Compounds were eluted using a binary solvent gradient system where solvent A was dilute phosphoric acid (pH 3) and solvent B was 80:20 acetonitrile-methanol. […] Detection was at 280 nm.

[5] = test system: T3, UGT enzymes of human liver microsomes; assay: Inhibition of 2ME2 glucuronidation (MG1, MG2) in human liver microsomes; settings: liver 062101, 2ME2 50 μM
T3 construct: other: liver 062101
Description: as §1

| SMILES | % of control metabolism (SD, n = 3), 7-HFC glucuronidation ([1]; inhibitor 500 μM) | residual metabolism (percentage of control), zidovudine glucuronidation ([2]; inhibitor 500 μM) | percentage of control metabolism, 7-HFC glucuronidation ([1]; inhibitor 100 μM) | % of control metabolism (SD, n = 3), 7-HFC glucuronidation ([1]; inhibitor 100 μM) | percentage of control metabolism, 7-HFC glucuronidation ([1]; inhibitor 200 μM) | % of control metabolism (SD, n = 3), 7-HFC glucuronidation ([1]; inhibitor 200 μM) | percentage of control metabolism, 7-HFC glucuronidation ([1]; inhibitor 500 μM) | % of control metabolism (SD, n = 3), raloxifene glucuronide G1 ([3]; inhibitor 100 μM) | % of control metabolism (SD, n = 3), raloxifene glucuronide G1 ([3]; inhibitor 500 μM) | % of control metabolism (SD, n = 3), raloxifene glucuronide G2 ([3]; inhibitor 100 μM) | residual metabolism (percentage of control), zidovudine glucuronidation ([2]; inhibitor 1000 μM) | also measured |
| --- | --- | --- | --- | --- | --- | --- | --- | --- | --- | --- | --- | --- |
| C=CC(C)(O)CCC=C(C)C (stereo not drawn) [Linalool] | 86 (2) % | 73 (5) % | – | – | – | – | – | – | – | – | – | – |
| CCCCC/C=C\C/C=C\CCCCCCCC(=O)O [Linoleic acid] | 33 (1) % | 68 (5) % | 86 (3) % | 86 (3) % | 77 (4) % | 77 (4) % | 33 (1) % | 101 (8) % | 29 (0) % | 100 (4) % | – | – |
| CCCCCCCCC(=O)NCc1ccc(O)c(OC)c1 [N-Vanillylnonanamide] | 48 (1) % | 67 (1) % | 69 (1) % | 69 (1) % | 63 (2) % | 63 (2) % | 48 (1) % | 48 (1) % | 14 (1) % | 62 (1) % | 40 (1) % | % of control metabolism (SD, n = 3), raloxifene glucuronide G2 ([3]; inhibitor 500 μM): 17 (2) % |
| O=C1C[C@@H](c2ccc(O)cc2)Oc2cc(O)cc(O)c21 [Naringenin] | 63 (1) % | 48 (7) % and 34 (4) % | – | – | – | – | – | 34 (2) % | – | 40 (2) % | 15 (3) % | residual metabolism (% of control), 2ME2 MG1 ([4]; inhibitor 50 μM): 78 (2) %; residual metabolism (% of control), 2ME2 MG1 ([4]; inhibitor 100 μM): 79 (5) %; % of control metabolism (SD, n = 3), raloxifene glucuronide G1 ([3]; inhibitor 50 μM): 54 (4) %; % of control metabolism (SD, n = 3), raloxifene glucuronide G2 ([3]; inhibitor 50 μM): 71 (9) %; residual metabolism (% of control), 2ME2 MG1 ([5]; inhibitor 25 μM): 76 (1) %; residual metabolism (% of control), 2ME2 MG2 ([5]; inhibitor 25 μM): 53 (4) %; residual metabolism (% of control), 2ME2 MG1 ([5]; inhibitor 50 μM): 47 (3) %; residual metabolism (% of control), 2ME2 MG2 ([5]; inhibitor 50 μM): 26 (5) %; residual metabolism (% of control), 2ME2 MG1 ([5]; inhibitor 100 μM): 21 (4) %; residual metabolism (% of control), 2ME2 MG2 ([5]; inhibitor 100 μM): 19 (0) %; residual metabolism (percentage of control), zidovudine glucuronidation ([2]; inhibitor 200 μM): 64 (3) % |
| CC1=C(/C=C/C(C)=C/C=C/C(C)=C/CO)C(C)(C)CCC1 [Retinol] | 25 (1) % | 76 (2) % | 59 (1) % | 59 (1) % | 39 (1) % | 39 (1) % | 25 (1) % | – | – | – | – | – |
| COc1cc(CO)ccc1O [Vanillyl alcohol] | 42 (0), % and 42 (0) % | 95 (5) % | – | 79 (1) % | – | 67 (3) % | – | – | – | – | – | – |
